Laboratory results reported in patent US20130143929A1, “FUNGICIDAL IMIDAZOLES” (EI DU PONT DE NEMOURS AND COMPANY, priority 2010, published 2013).
Marks after values point to notes of the source that are not given here.

Tests used:
Type in all cases: in vivo
[1] = tested on: Botrytis cinerea (the causal agent of tomato Botrytis); assay: Test C: tomato Botrytis, preventive spray on tomato seedlings, visual disease rating; conditions: tomato Botrytis, preventive spray on tomato seedlings
Outline: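 Preventive test: B. cinerea spore inoculation one day after tomato seedlings were sprayed to run-off with compound suspended in 50/50 acetone–water plus 250 ppm surfactant. Plants held 48 h at 20° C in saturated air, then 3 days at 24° C; visual ratings scored 100 (full control) to 0 versus controls; some entries used 40 ppm.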

[2] = tested on: Puccinia recondite f. sp. tritici (the causal agent of wheat leaf rust); assay: Test A: wheat leaf rust, preventive spray on wheat seedlings, visual disease rating; conditions: wheat leaf rust, preventive spray on wheat seedlings
Outline: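 This was a preventive test: Puccinia recondite f. sp. tritici inoculum was applied one day after compound spray to run-off. Test suspensions were made in 50/50 acetone/water with 250 ppm surfactant, at 200 ppm (800 g/ha equivalent) or 40 ppm. Visual ratings of % disease control relative to controls were made after 24 h of saturated humidity and 7 growth-chamber days, all at 20° C.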

[3] = tested on: Septoria tritici (the causal agent of wheat leaf blotch); assay: Test B: wheat leaf blotch, preventive spray on wheat seedlings, visual disease rating; conditions: wheat leaf blotch, preventive spray on wheat seedlings
Outline: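 Preventive test: Septoria tritici spores applied one day after run-off spraying of seedlings (200 ppm equals 800 g/ha; some tests 40 ppm). After 48 h at 24 °C saturated atmosphere and 19 days at 20 °C, disease scored visually as % control relative to untreated plants.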

[4] = tested on: Blumeria graminis f. sp. tritici (also known as Erysiphe graminis f. sp. tritici, the causal agent of wheat powdery mildew); assay: Test D: wheat powdery mildew, preventive spray on wheat seedlings, visual disease rating; conditions: wheat powdery mildew, preventive spray on wheat seedlings
Outline: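 Preventive test: seedlings sprayed to run-off and inoculated with powdery mildew spores one day later. Suspensions were made in 50/50 acetone/water with 250 ppm Trem 014 surfactant (200 ppm equals 800 g/ha). Visual ratings after 8 days at 20 °C give percent disease control versus controls.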

[5] = asterisk: 40 ppm test suspension
[6] = no asterisk (standard test suspension concentration, not 40 ppm)

Compound	Test C rating (100 = 100% disease control, 0 = no disease control relative to the controls) [1, 5]	Test A rating (100 = 100% disease control, 0 = no disease control relative to the controls) [2, 5]	Test B rating (100 = 100% disease control, 0 = no disease control relative to the controls) [3, 5]	Test D rating (100 = 100% disease control, 0 = no disease control relative to the controls) [4, 5]	Test C rating (100 = 100% disease control, 0 = no disease control relative to the controls) [1, 6] [%]	Test A rating (100 = 100% disease control, 0 = no disease control relative to the controls) [2, 6] [%]	Test B rating (100 = 100% disease control, 0 = no disease control relative to the controls) [3, 6] [%]	Test D rating (100 = 100% disease control, 0 = no disease control relative to the controls) [4, 6] [%]
Cc1nc(Cl)c(C(O)c2ccc(F)cc2Br)n1-c1c(F)cc(F)cc1Br (stereo not shown) [compound 70]	99* %	100* %	100* %	43* %	–	–	–	–
OC(c1ccc(F)cc1Br)c1c(Cl)nc(C2CC2)n1-c1c(F)cccc1Br (stereo not shown) [compound 72]	–	–	–	–	0	79	100	43
Cc1ncc(C(O)c2ccc(F)cc2Cl)n1-c1c(F)cccc1Br (stereo not shown) [compound 73]	–	–	–	–	99	100	100	0
Cc1ncc(C(O)c2ccc(F)cc2Cl)n1-c1c(F)cc(F)cc1Br (stereo not shown) [compound 74]	–	–	–	–	100	100	100	0
OC(c1ccc(F)cc1Cl)c1cnc(C2CC2)n1-c1c(F)cccc1Br (stereo not shown) [compound 75]	–	–	–	–	0	94	1	0
Cc1nc(Cl)c(C(O)c2ccc(F)cc2Cl)n1-c1c(F)cc(Br)cc1F (stereo not shown) [compound 76]	0* %	99* %	100* %	0* %	–	–	–	–
Cc1cc(F)ccc1C(O)c1c(Cl)nc(Cl)n1-c1ccc(F)cc1F (stereo not shown) [compound 77]	–	–	–	–	94	100	100	95
Cc1cc(F)ccc1C(O)c1cnc(C)n1-c1c(F)cccc1F (stereo not shown) [compound 80]	–	–	–	–	0	99	100	0
Cc1nc(Cl)n(-c2c(F)cc(F)cc2F)c1C(O)c1ccc(F)cc1F (stereo not shown) [compound 83]	99* %	100* %	100* %	100* %	–	–	–	–
Cc1cc(F)ccc1C(O)c1c(Br)nc(C)n1-c1c(F)cccc1F (stereo not shown) [compound 88]	–	–	–	–	96	99	100	90
OC(c1c(F)cc(F)cc1F)c1c(Cl)nc(Cl)n1-c1ccc(Cl)cc1Cl (stereo not shown) [compound 90]	–	–	–	–	98	100	100	99
Cc1cc(F)ccc1C(O)c1c(Cl)nc(C)n1-c1c(F)cccc1F (stereo not shown) [compound 91]	–	–	–	–	98	100	100	94
Cc1nc(Cl)c(C(O)c2ccc(F)cc2F)n1-c1c(F)cc(F)cc1Br (stereo not shown) [compound 92]	–	–	–	–	99	100	100	95
